Where “and” joins values, the source holds several entries; their conditions need not be identical. Identical values can stand only once.
Key:
[1] = Toxicity testing: hematocrit and average cage weights; format: in vivo, mice; settings: 240 mg/kg
Description: (PVA = 2-phosphonovalerate). Based on the screening results, initial dosing was established at approximately twice the peak active dose in the SI80 screen. Both a cisplatin control, also run at twice the peak active dose, and a negative control experiment, were run for comparative purposes. BUN was measured by using a kit manufactured by Harleco (No. 64667). WBC was measured by lysing the red blood cells with 3% acetic acid and counting the white cells using a haemocytometer.
Data obtained for Na[Pt(trans-R,R-dach)(PVA)] was taken at 240 mg/kg. […] Myelosuppresion however, was apparent. The WBC depression for this compound was 63% relative to controls. […] Average cage weights for the test mice were also taken over the seven day test period. The mice lost an average of 5.9 g (27.3%) of body weight over this time.

L1210 leukemia = assay: L1210 screening (L1210 leukemia tumor model), increase in life span; format: in vivo, Female CDF1 mice
Description: Female CDF1 mice (16-22 g) are injected with a suspension of 1 x 10^6 tumor cells in 0.5 mL of 0.15 M saline on day zero. On day one, the mice receive the test compound in 0.5 mL of the chosen medium (usually water). Six mice were used for each test dose, with six doses normally being run. Normal controls (six mice) receive tumor on day zero and 0.5 mL of the test medium on day one. Positive controls (six mice) receive tumor on day zero and 8 mg/kg cisplatin in 0.5 mL of 0.15 M saline on day one. All compound doses are adjusted for the actual average weight of the mice involved. Testing is terminated at three times the normal control mean life span. The percent increase in lifespan (ILS) is calculated as follows: %ILS = [(mean life span (test)/mean life span(control)-I]x100 A 25% ILS or greater indicates activity. The maximum possible ILS is 200%. The positive control must have an ILS of S 25% for the test to be considered valid.
The tumor line is maintained by transfer of 5 x 10^4- cells in 0.1 mL saline every seven days. DBA/2 (18-22 g) mice are employed for tumor transfers

[2] = Toxicity testing: WBC (myelosuppression); format: in vivo, mice; settings: for WBC: change vs. controls
Description: (§1) (PVA = 2-phosphonovalerate). Based on the screening results, initial dosing was established at approximately twice the peak active dose in the SI80 screen. […] WBC was measured by lysing the red blood cells with 3% acetic acid and counting the white cells using a haemocytometer.
(§2) Data obtained for Na[Pt(trans-R,R-dach)(PVA)] was taken at 240 mg/kg. […] Average cage weights for the test mice were also taken over the seven day test period.

[3] = Toxicity testing: BUN (kidney toxicity); format: in vivo, mice; settings: for BUN: change vs. controls
Description: as §1, §2

Sarcoma 180 ascites = assay: S180a screening (Sarcoma 180 ascites tumor model), increase in life span; format: in vivo, CFW mice; settings: for Surv.: survivors on day of evaluation
Description: CFW mice, averaging 20 g, are innoculated on day zero with 0.2 mL of a freshly prepared saline suspension (0.15 M NaCI) containing 1 × 10^7 tumor cells/mL, or a total of 2 x 10^6 cells. On day I, the mice are injected with the test compound in the selected medium (usually water). Six mice are used per test dose, with six doses normally being run.
Also, on day one, two types of controls (6 mice/set are employed: (1) Normal (1 set): 0.5 mL of the solvent medium used for the test compound, and (2) Positive control (1 set): cis-[Pt(NH3)2Cl2] in saline at 8 mg/kg.
The effectiveness of a compound is measured in terms of the increase in life span (ILS) of the test animals relative to the controls calculated from the day of tumor inoculation (day zero). The day of evaluation is arbitrarily taken as that day corresponding to twice the mean life-span of the normal controls. This sets a practical upper limit of 100% on the ILS attainable. For calculation purposes, survivors on the day of evaluation are considered to have died on that day. The % ILS is formulated as: [formula]
ILS values above 50% represent activity. The positive controls must have an ILS of ≧ 50% for the test to be valid.

[4] = dose 10.00 mg/kg on day 1, vehicle water
[5] = dose 10.00 mg/kg on day 1, vehicle water, survivors
[6] = dose 20.00 mg/kg on day 1, vehicle water
[7] = dose 20.00 mg/kg on day 1, vehicle water, survivors
[8] = dose 40.00 mg/kg on day 1, vehicle water
[9] = dose 40.00 mg/kg on day 1, vehicle water, survivors
[10] = dose 80.00 mg/kg on day 1, vehicle water
[11] = dose 80.00 mg/kg on day 1, vehicle water, survivors
[12] = dose 160.00 mg/kg on day 1, vehicle water
[13] = dose 160.00 mg/kg on day 1, vehicle water, survivors
[14] = dose 320.00 mg/kg on day 1, vehicle water
[15] = dose 320.00 mg/kg on day 1, vehicle water, survivors

What does the source list for `CCCC1C(=O)[O][Pt][O]P1(=O)[O-].NC1CCCCC1N.[Na+]` (mixture of isomers) [Ex 18, Na[Pt(trans-R,R-dach)(2-phosphonovaierate)]]?
hematocrits (ratio of packed red blood cells to volume of whole blood) [1]: low hematocrits; %ILS (L1210 leukemia; [4]): 36%; Surv. (L1210 leukemia; [5]): 0/ 6; %ILS (L1210 leukemia; [6]): 25%; Surv. (L1210 leukemia; [7]): 0/ 6; %ILS (L1210 leukemia; [8]): 33%; Surv. (L1210 leukemia; [9]): 0/ 6; %ILS (L1210 leukemia; [10]): 33%; Surv. (L1210 leukemia; [11]): 0/ 6; %ILS (L1210 leukemia; [12]): 109%; Surv. (L1210 leukemia; [13]): 0/ 6; %ILS (L1210 leukemia; [14]): 24%; Surv. (L1210 leukemia; [15]): 1/ 6; WBC depression relative to controls ([2]; 240 mg/kg): 63%; WBC ([2]; dose 240 mg/kg): -63%; BUN decrease vs. controls ([3]; 240 mg/kg): 4%; average BUN level ([3]; 240 mg/kg, test mice): 34.7 mg/dL; BUN ([3]; dose 240 mg/kg): -4%; kidney toxicity ([3]; judged from BUN elevation): not kidney toxic at this dose; %ILS (Sarcoma 180 ascites; [8]): 77%; Surv. (Sarcoma 180 ascites; [8]): 1/ 6; %ILS (Sarcoma 180 ascites; [10]): 92%; Surv. (Sarcoma 180 ascites; [10]): 5/ 6; %ILS (Sarcoma 180 ascites; [12]): 44%; Surv. (Sarcoma 180 ascites; [12]): 1/ 6

For `CCC(C)(C(=O)[O-])P(=O)([O-])[O-].N[C@@H]1CCCC[C@H]1N.[Na+].[Pt+2]` (relative stereo) [Ex 22, Na[Pt(trans-R,R-dach)(2-methyl-2-phosphonobutyrate)]], which “%ILS” value (L1210 leukemia; [4]) is on record?
Its value is 45%.

And the Surv. (L1210 leukemia; [5])?
The Surv. was 0/ 6.

What about the “%ILS” value (L1210 leukemia; [6]) of the same compound?
The value was 35%.

What about the Surv. (L1210 leukemia; [7]) of the same compound?
Its Surv. is 0/ 6.

And the “%ILS” value (L1210 leukemia; [8])?
The value was 70%.

And the Surv. (L1210 leukemia; [9])?
Its Surv. is 1/ 6.

And the “%ILS” value (L1210 leukemia; [10])?
Its value is 94%.

And the Surv. (L1210 leukemia; [11])?
The Surv. was 1/ 6.

What about the “%ILS” value (L1210 leukemia; [12]) of the same compound?
Its value is 114%.

And the Surv. (L1210 leukemia; [13])?
Its Surv. is 3/ 6.

And the “%ILS” value (L1210 leukemia; [14])?
The value was -39%.

What about the Surv. (L1210 leukemia; [15]) of the same compound?
Its Surv. is 0/ 6.

And the “%ILS” value (Sarcoma 180 ascites; [4])?
The value was 28%.

And the Surv. (Sarcoma 180 ascites; [4])?
The Surv. was 1/ 6.

And the “%ILS” value (Sarcoma 180 ascites; [6])?
The value was 20%.

And the Surv. (Sarcoma 180 ascites; [6])?
Its Surv. is 0/ 6.

What about the “%ILS” value (Sarcoma 180 ascites; [8]) of the same compound?
Its value is 82%.

What about the Surv. (Sarcoma 180 ascites; [8]) of the same compound?
The Surv. was 4/ 6.

What about the “%ILS” value (Sarcoma 180 ascites; [10]) of the same compound?
The value was 100%.

What about the Surv. (Sarcoma 180 ascites; [10]) of the same compound?
The Surv. was 6/ 6.

What about the “%ILS” value (Sarcoma 180 ascites; [12]) of the same compound?
The value was 86%.

What about the Surv. (Sarcoma 180 ascites; [12]) of the same compound?
The Surv. was 2/ 6.

What about the “%ILS” value (Sarcoma 180 ascites; [14]) of the same compound?
Its value is -78%.

And the Surv. (Sarcoma 180 ascites; [14])?
Its Surv. is 0/ 6.

What does the source list for `N[C@@H]1CCCC[C@H]1N.O=C1[O][Pt][O]P1(=O)[O-].[Na+]` [Ex 20, Na[Pt(trans-R,R-dach)(phosphonoformate)]]?
%ILS (L1210 leukemia; [4]): -17%; Surv. (L1210 leukemia; [5]): 0/ 6; %ILS (L1210 leukemia; [6]): -20%; Surv. (L1210 leukemia; [7]): 0/ 6; %ILS (L1210 leukemia; [8]): -14%; Surv. (L1210 leukemia; [9]): 0/ 6; %ILS (L1210 leukemia; [10]): -7%; Surv. (L1210 leukemia; [11]): 0/ 6; %ILS (L1210 leukemia; [12]): 11%; Surv. (L1210 leukemia; [13]): 0/ 6; %ILS (L1210 leukemia; [14]): 20%; Surv. (L1210 leukemia; [15]): 0/ 6; %ILS (Sarcoma 180 ascites; [4]): 6%; Surv. (Sarcoma 180 ascites; [4]): 0/ 6; %ILS (Sarcoma 180 ascites; [6]): -5%; Surv. (Sarcoma 180 ascites; [6]): 0/ 6; %ILS (Sarcoma 180 ascites; [8]): 7%; Surv. (Sarcoma 180 ascites; [8]): 0/ 6; %ILS (Sarcoma 180 ascites; [10]): 18%; Surv. (Sarcoma 180 ascites; [10]): 0/ 6; %ILS (Sarcoma 180 ascites; [12]): 59%; Surv. (Sarcoma 180 ascites; [12]): 0/ 6; %ILS (Sarcoma 180 ascites; [14]): 55%; Surv. (Sarcoma 180 ascites; [14]): 0/ 6

For “Na[Pt(trans-R, R-dach)(2-phosphono-1,7-heptanedicarboxylate)] [Ex 23]”, which “%ILS” value (L1210 leukemia; [4]) is on record?
The value was 59%.

What about the Surv. (L1210 leukemia; [5]) of the same compound?
The Surv. was 0/ 6.

And the “%ILS” value (L1210 leukemia; [6])?
Its value is 67%.

What about the Surv. (L1210 leukemia; [7]) of the same compound?
The Surv. was 0/ 6.

What about the “%ILS” value (L1210 leukemia; [8]) of the same compound?
Its value is 88%.

And the Surv. (L1210 leukemia; [9])?
The Surv. was 0/ 6.

And the “%ILS” value (L1210 leukemia; [10])?
Its value is 133%.

And the Surv. (L1210 leukemia; [11])?
Its Surv. is 3/ 6.

And the “%ILS” value (L1210 leukemia; [12])?
Its value is 161%.

What about the Surv. (L1210 leukemia; [13]) of the same compound?
Its Surv. is 3/ 6.

And the “%ILS” value (L1210 leukemia; [14])?
Its value is -32%.

What about the Surv. (L1210 leukemia; [15]) of the same compound?
Its Surv. is 0/ 6.

What about the “%ILS” value (Sarcoma 180 ascites; [4]) of the same compound?
The value was 20%.

What about the Surv. (Sarcoma 180 ascites; [4]) of the same compound?
The Surv. was 0/ 6.

And the “%ILS” value (Sarcoma 180 ascites; [6])?
The value was 31%.

And the Surv. (Sarcoma 180 ascites; [6])?
The Surv. was 0/ 6.

And the “%ILS” value (Sarcoma 180 ascites; [8])?
The value was 45%.

What about the Surv. (Sarcoma 180 ascites; [8]) of the same compound?
The Surv. was 2/ 6.

And the “%ILS” value (Sarcoma 180 ascites; [10])?
The value was 86%.

And the Surv. (Sarcoma 180 ascites; [10])?
Its Surv. is 4/ 6.

What about the “%ILS” value (Sarcoma 180 ascites; [12]) of the same compound?
Its value is 34%.

And the Surv. (Sarcoma 180 ascites; [12])?
Its Surv. is 4/ 6.

What about the “%ILS” value (Sarcoma 180 ascites; [14]) of the same compound?
Its value is -37%.

And the Surv. (Sarcoma 180 ascites; [14])?
Its Surv. is 1/ 6.

Which results are given for “cis-[Pt(NH3)2Cl2] [Cisplatin, reference compound]”?
POS. CONT. Surv. (L1210 leukemia; positive control of the same test: 8 mg/kg cisplatin in 0.15 M saline on day 1, survivors, listed as POS. CONT.): 0/ 6 and 1/ 6 and 3/ 6 and 2/ 6; WBC ([2]; dose 15 mg/kg): -7%; BUN ([3]; dose 15 mg/kg): +98%; POS. CONT. %ILS (Sarcoma 180 ascites; positive control of the same test: cis-[Pt(NH3)2Cl2] in saline at 8 mg/kg on day 1, listed as POS. CONT., 8 mg/kg): 89% and 85% and 70% and 55% and 94% and 74% and 86% and 68%; POS. CONT. Surv. (Sarcoma 180 ascites; positive control of the same test: cis-[Pt(NH3)2Cl2] in saline at 8 mg/kg on day 1, survivors, listed as POS. CONT., 8 mg/kg): 4/ 6 and 3/ 6 and 2/ 6 and 1/ 6
